Results taken from ChEMBL document CHEMBL1201862, “PubChem BioAssay data set” (2004).
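Briefly, cells in 96-well plates were exposed to five compound concentrations for 48 h, and endpoints were estimated by linear interpolation. The concentration for 50% growth inhibition is given as GI50.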 Active and inactive are the calls of the source. Cut-off read from the data, not from the text of the source: active = GI50 up to about 1.1 µM and inactive = higher.

Legend:
Assay in all cases: inhibition of tumour cell growth, NCI panel, 48 h
DLD-1 = test system: DLD-1
DMS-114 = test system: DMS-114
DMS-273 = test system: DMS-273
HOP-18 = test system: HOP-18
LXFL 529 = test system: LXFL 529
M19-MEL = test system: M19-MEL
SNB-78 = test system: SNB-78
XF498 = test system: XF498
RXF 631 = test system: RXF 631

Row | SMILES | GI50 (DLD-1) | GI50 (DMS-114) | GI50 (DMS-273) | GI50 (HOP-18) | GI50 (LXFL 529) | GI50 (M19-MEL) | GI50 (SNB-78) | GI50 (XF498) | GI50 (RXF 631)
1 | O=C(N/C(=C\c1ccc2c(c1)OCO2)c1nc2ccccc2[nH]1)c1ccccc1 | 30.8 µM (inactive) | 2.39 µM (inactive) | 28.8 µM (inactive) | 43.6 µM (inactive) | 20.4 µM (inactive) | 3.03 µM (inactive) | 39.4 µM (inactive) | 15.5 µM (inactive) | 
2 | CC1COS(=O)N1c1ccccc1 (stereo not drawn) | > 100 µM (inactive) | > 100 µM (inactive) | > 100 µM (inactive) | > 100 µM (inactive) | > 100 µM (inactive) | > 100 µM (inactive) |  | > 100 µM (inactive) | 
3 | CN1CC(C(=O)C2C(=O)c3ccccc3C2=O)C(=O)C(=O)C(C(=O)C2C(=O)c3ccccc3C2=O)C1 (stereo not drawn) | > 100 µM (inactive) | > 100 µM (inactive) | > 100 µM (inactive) |  |  |  |  | > 100 µM (inactive) | > 100 µM (inactive)
4 | COc1c(OC(C)=O)c(OC(C)=O)cc2c1-c1ccc(OC)c(=O)cc1C(NC(C)=O)CC2 (stereo not drawn) | 0.0186 µM (active) | < 0.0127 µM (active) | 0.0172 µM (active) |  | < 0.01 µM (active) | < 0.0167 µM (active) | < 0.01 µM (active) | 0.0311 µM (active) | 0.0676 µM (active)
5 | Cc1ccc(C(=O)C#Cc2cnc(O)nc2O)cc1 | 10.3 µM (inactive) |  | 16.1 µM (inactive) | 18.6 µM (inactive) |  | 14.7 µM (inactive) | 11.9 µM (inactive) |  | 
6 | O=c1[nH]cc(COCC(O)CO)c(=O)[nH]1 (stereo not drawn) | > 100 µM (inactive) | > 100 µM (inactive) | > 100 µM (inactive) | > 100 µM (inactive) | > 100 µM (inactive) | > 100 µM (inactive) | > 100 µM (inactive) | > 100 µM (inactive) | > 100 µM (inactive)
7 | COc1ccccc1NC(=O)C1=C(C)NC(C)=C(C(=O)Nc2ccccc2OC)C1c1ccc([N+](=O)[O-])cc1 | 46.6 µM (inactive) | 9.12 µM (inactive) | 86.7 µM (inactive) | > 100 µM (inactive) | 48.2 µM (inactive) |  | > 100 µM (inactive) | 3.5 µM (inactive) | 56.8 µM (inactive)
8 | N#Cc1ccccc1NC(=O)c1ccccc1 | > 100 µM (inactive) |  | > 100 µM (inactive) | > 100 µM (inactive) |  | > 100 µM (inactive) | > 100 µM (inactive) | > 100 µM (inactive) | 
9 | Clc1c(Cl)c2c(Cl)c(Cl)c1C[PH](c1ccccc1)(c1ccccc1)CC[PH](c1ccccc1)(c1ccccc1)Cc1c(Cl)c(Cl)c(c(Cl)c1Cl)C[PH](c1ccccc1)(c1ccccc1)CC[PH](c1ccccc1)(c1ccccc1)C2 | 2.37 µM (inactive) | 1.68 µM (inactive) | 2.42 µM (inactive) | 8.17 µM (inactive) | 2.15 µM (inactive) | 2.81 µM (inactive) | 3.82 µM (inactive) |  | 6.68 µM (inactive)
10 | Nc1nc(SCCC/C=C/B(O)O)nc2c1ncn2C1OC(COP(=O)(O)O)C(O)C1O (stereo not drawn) | > 203 µM (inactive) | > 203 µM (inactive) | > 203 µM (inactive) | > 203 µM (inactive) |  | > 203 µM (inactive) | > 203 µM (inactive) | > 203 µM (inactive) | 
11 | Cc1c2ccnc(C(N)=O)c2c(C)c2c1[nH]c1ccccc12 | 5.07 µM (inactive) | 8.91 µM (inactive) | 2.39 µM (inactive) | 9.48 µM (inactive) | 5.69 µM (inactive) | 7.46 µM (inactive) | 14 µM (inactive) | 8.24 µM (inactive) | 4.58 µM (inactive)
12 | O=C1CC2CCN(C(=O)c3ccccc3)CC2CCN1.O=C1CCC2CC(C(=O)c3ccccc3)CCC2CN1 (stereo not drawn) | > 100 µM (inactive) | > 100 µM (inactive) | > 100 µM (inactive) | > 100 µM (inactive) | > 100 µM (inactive) | > 100 µM (inactive) | > 100 µM (inactive) |  | 
13 | CCOC(=O)C1C(c2ccc(Br)cc2)N(Cc2ccccc2)C(c2ccc(Br)cc2)C(C(=O)OC)S1(=O)=O (stereo not drawn) | > 100 µM (inactive) | 66.4 µM (inactive) | 74.1 µM (inactive) | 21.9 µM (inactive) | > 100 µM (inactive) | 74.6 µM (inactive) | > 100 µM (inactive) | > 100 µM (inactive) | 
14 | C=CCc1cc(OC)c(O)c(C(=O)/C=C/c2ccc(OC)c(OC)c2)c1 | 18.4 µM (inactive) | 17.8 µM (inactive) | 23.4 µM (inactive) |  | 20.9 µM (inactive) |  | 28.8 µM (inactive) | 14.1 µM (inactive) | 25.4 µM (inactive)
15 | N#CCC(=O)N/N=C(/C(=O)Nc1ccccc1)C1C(=O)N(c2ccccc2)N=C1N (stereo not drawn) | > 100 µM (inactive) | > 100 µM (inactive) | > 100 µM (inactive) | > 100 µM (inactive) | > 100 µM (inactive) | > 100 µM (inactive) | > 100 µM (inactive) | > 100 µM (inactive) | > 100 µM (inactive)
16 | Cc1nn(-c2ccccc2)c2nc(N3CCOCC3)nnc12 | 59.2 µM (inactive) | 34.4 µM (inactive) | > 100 µM (inactive) | < 0.01 µM (active) | 53.3 µM (inactive) | > 100 µM (inactive) | > 100 µM (inactive) | 51.8 µM (inactive) | 92.7 µM (inactive)
17 | CCOC(=O)c1s/c(=N\Nc2nc3ccccc3cc2C2OCCO2)n(Cc2ccccc2)c1C | > 100 µM (inactive) | > 100 µM (inactive) | > 100 µM (inactive) | > 100 µM (inactive) | > 100 µM (inactive) | > 100 µM (inactive) | > 100 µM (inactive) | > 100 µM (inactive) | > 100 µM (inactive)
18 | O=C1NC(=O)C(=Cc2c3ccccc3cc3ccccc23)C(=O)N1 |  |  | > 100 µM (inactive) | 83.8 µM (inactive) | 79.4 µM (inactive) | > 100 µM (inactive) |  | > 100 µM (inactive) | > 100 µM (inactive)
19 | CC(=O)O[C@@]12CO[C@@H]1C[C@@H](O)[C@@]1(C)C(=O)[C@H](O)C3=C(C)[C@@H](OC(=O)[C@H](O)[C@@H](NC(=O)c4ccccc4)c4ccccc4)C[C@@](O)([C@@H](OC(=O)c4ccccc4)C12)C3(C)C (stereo partly drawn) |  | < 0.01 µM (active) | < 0.01 µM (active) |  |  | < 0.01 µM (active) |  |  | 
20 | CCCNC(=O)C(C)(Cl)C(=O)c1ccccc1O (stereo not drawn) | > 100 µM (inactive) | > 100 µM (inactive) | > 100 µM (inactive) | > 100 µM (inactive) | > 100 µM (inactive) | > 100 µM (inactive) | > 100 µM (inactive) |  | 
21 | O=C(O/N=C1/CCCC/C1=C\c1ccccc1)c1ccccc1 | 30.5 µM (inactive) | 17.1 µM (inactive) | 40.3 µM (inactive) | > 100 µM (inactive) | 28.4 µM (inactive) | > 100 µM (inactive) |  | > 100 µM (inactive) | 
22 | C=CCc1cc(-c2cc(CC=C)c(O)c(CN(CCCl)CCCl)c2)cc(CN(CCCl)CCCl)c1O | 16.4 µM (inactive) |  | 7.83 µM (inactive) | 25.2 µM (inactive) | 12.2 µM (inactive) | 14.5 µM (inactive) | 35.4 µM (inactive) | > 10 µM (inactive) | 14.1 µM (inactive)
23 | N#Cc1nc(Nc2ccc(Cl)cc2)sc1N | 17.9 µM (inactive) | 3.07 µM (inactive) | 13.2 µM (inactive) | 29.4 µM (inactive) | 3.55 µM (inactive) | 12.4 µM (inactive) | 10.8 µM (inactive) | 14.3 µM (inactive) | 
24 | C/C(=N\NS(=O)(=O)c1ccccc1)c1ccc[n+]([O-])n1 | 44.9 µM (inactive) | 97.3 µM (inactive) | > 100 µM (inactive) | > 100 µM (inactive) | 37.8 µM (inactive) | > 100 µM (inactive) | 63.7 µM (inactive) |  | > 100 µM (inactive)
25 | CC(C)N(C(=O)C12C3C4C1(I)C1C2C3(I)C41C(=O)N(C(C)C)C(C)C)C(C)C (stereo not drawn) | > 56.5 µM (inactive) |  | > 100 µM (inactive) | > 100 µM (inactive) | > 67.6 µM (inactive) | > 47 µM (inactive) |  | > 100 µM (inactive) | > 100 µM (inactive)
26 | CCCCCNC(=O)C1C(=O)N(CCCCC)C(=O)/C1=N\N (stereo not drawn) | 70.6 µM (inactive) |  |  | 50 µM (inactive) | 41.2 µM (inactive) | 86.5 µM (inactive) | 23.6 µM (inactive) |  | 
27 | O=C1NC(=O)C(C(=O)C(=O)Nc2cccc(C(F)(F)F)c2)C(=O)N1 | > 100 µM (inactive) | > 100 µM (inactive) |  |  | > 100 µM (inactive) | > 100 µM (inactive) | > 100 µM (inactive) |  | 
28 | CN(CCN(C)C(=O)CCn1cc(F)c(=O)[nH]c1=O)C(=O)CCn1cc(F)c(=O)[nH]c1=O |  | > 100 µM (inactive) | > 100 µM (inactive) |  | > 100 µM (inactive) | > 100 µM (inactive) |  | > 100 µM (inactive) | 
